Laboratory results from patent publication US5560907A, “Whitening embellisher” (Eisai Co., Ltd., priority 1992, dated 1996).

Key:
[1] = tested on: B16 melanoma cells derived from a mouse; assay: Restraint of melanin production in cultured B16 melanoma cells
[2] = tested on: tyrosinase, derived from mushroom; assay: Inhibition of enzyme activity of mushroom tyrosinase; type: biochemical; conditions: concentration of 0.01-0.1%
Solubility in water = type: physicochemical
Excerpt: The whitening and beautifying preparation suitable for use in a bath according to the present invention means a preparation which can be dissolved in hot water in a bathtub upon bathing to use it, and can be provided as tablets, granules, powder, liquid or the like. It can be formulated according to any process generally used.

[3] = tested on: tyrosinase in the B16 melanoma cells; assay: Amount of tyrosinase in B16 melanoma cells by SDS-PAGE; type: cell-based, mouse; conditions: culture systems added with teprenone
[4] = Mus musculus, B16, read-out: production of melanin restrained, to control

Structure (SMILES)	concentration essential for attaining the same effect of the combined use as kojic acid ([1]; arbutin combined with teprenone, equals 10-30 ppm)	action to inhibit the enzyme activity of tyrosinase [2]	inhibition at 0.0001 % [1, 4] [%]	inhibition at 0.0002 % [1, 4] [%]	inhibition at 0.0003 % [1, 4] [%]	reversibility of the melanin inhibiting action ([1]; cells cultured again in a system containing no teprenone, melanin greatly increased)	cytotoxicity ([1]; sample concentrations 1×10^-4 to 3×10^-4 %)	solubility in water (Solubility in water)	amount of tyrosinase in the B16 melanoma cells [3]
OC[C@H]1O[C@@H](Oc2ccc(O)cc2)[C@H](O)[C@@H](O)[C@@H]1O [arbutin]	1×10^-3 -3×10^-3%								
CC(=O)CCC=C(C)CCC=C(C)CCC=C(C)CCC=C(C)C [teprenone, geranylgeranylacetone]		did not exhibit any action to inhibit the enzyme activity	85	80	70	reversible inhibiting action	no cytotoxicity was recognized	insoluble in water	decreased in proportion to the concentration of teprenone added
